Experimental findings from ChEMBL document CHEMBL1201862, “PubChem BioAssay data set” (2004) are described below.

Molecules are shown by their SMILES.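 48-hour exposure; five concentrations; linearly interpolated endpoints. At the GI50, growth is halved.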 Active and inactive are the calls of the source. Cut-off read from the data, not from the text of the source: active = GI50 up to about 1.1 µM and inactive = higher. Some results are limits rather than exact numbers.

Assay in all cases: NCI anticancer screen, dose series, 48 h
Experiment [1] concerns 786-0.
Experiment [2] relates to CAKI-1.
Experiment [3] deals with HCC 2998.
Experiment [4] relates to HCT-15.
Experiment [5] deals with IGROV-1.
Experiment [6] relates to K562.
Experiment [7] concerns MOLT-4.
Experiment [8] deals with NCI-H226.
Experiment [9] concerns NCI-H23.
Experiment [10] concerns NCI-H460.
In experiment [11] the test system is NCI-H522.
In experiment [12] the test system is OVCAR-3.
Experiment [13] concerns OVCAR-5.
Experiment [14] relates to SF-295.
The test system of experiment [15] is SNB-19.
The subject of experiment [16] is SNB-75.
In experiment [17] the test system is TK-10.
The test system of experiment [18] is OVCAR-8.
The subject of experiment [19] is U-251.

On to `Brc1cccc(C2(CCCC3(c4cccc(Br)n4)OCCO3)OCCO2)n1`, for which the GI50 is 59.7 µM (inactive) in [1]; > 100 µM (inactive) in experiment [2]; > 100 µM (inactive) in [3]; above 100 µM in [4]; > 100 µM (inactive) in experiment [5]; > 100 µM (inactive) in [6]. Also, the GI50 in experiment [7] is > 100 µM (inactive); in experiment [8] it was > 100 µM (inactive); in [9], > 100 µM (inactive); in [10], > 100 µM (inactive); in [11] it was 36.6 µM (inactive); in experiment [12], > 100 µM (inactive). Also, the GI50 was > 100 µM (inactive) in experiment [13]; 68.7 µM (inactive) in experiment [14]; > 100 µM (inactive) in [15]; 23.9 µM (inactive) in experiment [16]; > 100 µM (inactive) in experiment [17].
On to `CCOC(=O)CSc1cc[nH]c(=O)n1`, for which the GI50 in [1] is > 100 µM (inactive); in experiment [2], > 100 µM (inactive); in experiment [4], above 100 µM; in experiment [5], > 100 µM (inactive); in [6] it was > 100 µM (inactive); in [7], > 100 µM (inactive). Besides, the GI50 in experiment [10], in experiment [11], in experiment [12], in [13], in experiment [18] and in experiment [14] was > 100 µM (inactive) each time. Moreover, the GI50 in experiment [15], in [16], in experiment [17] and in [19] was > 100 µM (inactive) each time.
With `COc1ccc2c(C3(O)CCNCC3)c[nH]c2c1`, the GI50 was > 100 µM (inactive) in experiment [1]; > 100 µM (inactive) in [2]; > 100 µM (inactive) in experiment [3]; above 100 µM in experiment [4]; > 100 µM (inactive) in experiment [5]; > 100 µM (inactive) in [6]. The GI50 in experiment [7], in [9], in experiment [10], in experiment [11], in experiment [12] and in experiment [13] was > 100 µM (inactive) throughout. Moreover, the GI50 in experiment [18], in experiment [14], in experiment [15], in experiment [16], in experiment [17] and in experiment [19] was > 100 µM (inactive) each time.
On to `O=S1(=O)OCCOS(=O)(=O)C1C1c2ccccc2-c2ccccc21`, for which the GI50 is 20 µM (inactive) in experiment [1]; 29.7 µM (inactive) in experiment [2]; 29 µM (inactive) in experiment [3]; 35.4 µM in [4]; 23.5 µM (inactive) in [5]; 31.3 µM (inactive) in [6]. In addition, the GI50 is 15.6 µM (inactive) in [7]; 26 µM (inactive) in experiment [8]; 28.7 µM (inactive) in experiment [9]; 11.4 µM (inactive) in experiment [10]; 20.7 µM (inactive) in experiment [11]; 47 µM (inactive) in experiment [12]. The GI50 in experiment [13] was 72.3 µM (inactive); in experiment [18], 50.8 µM (inactive); in experiment [14], 29 µM (inactive); in [15], 38.5 µM (inactive); in experiment [16], 2.41 µM (inactive); in experiment [17], > 100 µM (inactive). Also, in experiment [19], the GI50 is 20.7 µM (inactive).
For `CCOC(=O)c1c(-c2ccc(Br)cc2)ccn1C`, the GI50 in [1] was > 10 µM (inactive); in experiment [2], > 10 µM (inactive); in [3], > 10 µM (inactive); in [4] it was above 10 µM; in experiment [5], > 10 µM (inactive); in experiment [6], > 10 µM (inactive). The GI50 in experiment [7], in [8], in experiment [9], in experiment [10], in experiment [11] and in [12] was > 10 µM (inactive) each time. Besides, the GI50 in experiment [13], in [18], in experiment [14], in experiment [15], in [16] and in [17] was > 10 µM (inactive) throughout. Also, in [19], the GI50 was > 10 µM (inactive).
Turning to `C1CCN2CC3CONC3C2C1` (configuration not stated), the GI50 in [1] is > 100 µM (inactive); in experiment [2], > 100 µM (inactive); in experiment [3], > 100 µM (inactive); in experiment [4] it was above 100 µM; in experiment [5], > 100 µM (inactive); in experiment [6], > 100 µM (inactive). For the same compound, the GI50 in experiment [7], in experiment [8], in [9], in [10], in experiment [11] and in [12] was > 100 µM (inactive) in each case. The GI50 in experiment [13], in [18], in [14], in [15], in experiment [16] and in [17] was > 100 µM (inactive) each time. The GI50 in [19] is > 100 µM (inactive).
On to `CCCCCCCCSC1=C(Cl)C(=O)C(OC)=C(OC)C1=O`, for which the GI50 is 12.5 µM (inactive) in experiment [1]; 12.3 µM (inactive) in experiment [2]; 15.2 µM (inactive) in [3]; 6.34 µM in experiment [4]; 14.1 µM (inactive) in [5]; 9.71 µM (inactive) in experiment [6]. The GI50 in experiment [7] is 3.12 µM (inactive); in experiment [8], 12.4 µM (inactive); in experiment [9] it was 13 µM (inactive); in experiment [10], 15.4 µM (inactive); in [11], 2.47 µM (inactive); in experiment [12] it was 7.14 µM (inactive). Further, the GI50 is 6.67 µM (inactive) in experiment [13]; 12 µM (inactive) in experiment [18]; 12.5 µM (inactive) in [14]; 10.5 µM (inactive) in experiment [15]; 19.1 µM (inactive) in experiment [16]; 14.1 µM (inactive) in [17]. Besides, in experiment [19], the GI50 is 10.5 µM (inactive).
For `COC(=O)N(C(=O)OC)C(C(=O)O)C(C)C` (configuration not stated), the GI50 in experiment [1], in experiment [2], in experiment [3], in experiment [8], in experiment [9] and in [10] was > 100 µM (inactive) throughout. Also, the GI50 in experiment [11], in experiment [13], in [18], in [14], in experiment [15] and in experiment [16] was > 100 µM (inactive) each time. Moreover, the GI50 in experiment [17] and in experiment [19] was > 100 µM (inactive) each time.
With `CC1CC(=O)C2CC(CO)=CCCC2C1(C)CC/C(=C/CO)CO` (configuration not stated), the GI50 in experiment [1] was > 100 µM (inactive); in [2] it was > 100 µM (inactive); in experiment [3], > 100 µM (inactive); in [4], above 100 µM; in experiment [5], > 100 µM (inactive); in [6] it was > 100 µM (inactive). For the same compound, the GI50 in experiment [7] is > 100 µM (inactive); in experiment [8], > 100 µM (inactive); in experiment [9], > 100 µM (inactive); in experiment [10] it was > 100 µM (inactive); in experiment [11] it was 87.9 µM (inactive); in experiment [12] it was > 100 µM (inactive). Further, the GI50 in experiment [18], in experiment [14], in experiment [16], in experiment [17] and in [19] was > 100 µM (inactive) throughout.
Regarding `NC(CCc1ncc(C(=O)O)s1)C(=O)O` (configuration not stated), the GI50 in experiment [1] is > 100 µM (inactive); in [2] it was > 100 µM (inactive); in experiment [3] it was > 100 µM (inactive); in [4], above 100 µM; in experiment [5] it was > 100 µM (inactive); in experiment [6], > 100 µM (inactive). Also, the GI50 in experiment [7], in experiment [8], in experiment [9], in experiment [10], in [11] and in experiment [12] was > 100 µM (inactive) each time. Besides, the GI50 in experiment [18] is > 100 µM (inactive); in experiment [14], > 100 µM (inactive); in experiment [15] it was > 10 µM (inactive); in experiment [16], > 100 µM (inactive); in [17], > 100 µM (inactive); in experiment [19] it was > 100 µM (inactive).
`CCCCNC(=O)OCC(COc1ccccc1OC)OC(=O)NCCCC` (configuration not stated): the GI50 in experiment [1] was > 100 µM (inactive); in experiment [2], > 100 µM (inactive); in [3], > 100 µM (inactive); in [4], above 100 µM; in experiment [5], > 100 µM (inactive); in experiment [6] it was 68.5 µM (inactive). Further, the GI50 in experiment [7] was > 100 µM (inactive); in experiment [8], > 100 µM (inactive); in experiment [9], > 100 µM (inactive); in experiment [10], > 100 µM (inactive); in experiment [11], 45.4 µM (inactive); in experiment [12], > 100 µM (inactive). Besides, the GI50 is > 100 µM (inactive) in experiment [18]; > 100 µM (inactive) in experiment [14]; > 100 µM (inactive) in experiment [15]; 96.6 µM (inactive) in [16]; > 100 µM (inactive) in experiment [17]; > 100 µM (inactive) in experiment [19].
With `CC(=O)OC1COC(n2c(=S)n(-c3ccccc3)c(=O)c3cc(Br)ccc32)C(OC(C)=O)C1OC(C)=O` (configuration not stated), the GI50 was 34.1 µM (inactive) in [1]; 42 µM (inactive) in experiment [2]; > 100 µM (inactive) in [3]; above 100 µM in experiment [4]; 45.1 µM (inactive) in experiment [5]; > 100 µM (inactive) in experiment [6]. The GI50 in experiment [7] is > 100 µM (inactive); in [8], 83.4 µM (inactive); in experiment [9] it was 43.7 µM (inactive); in experiment [10], 65.2 µM (inactive); in experiment [11], 45.8 µM (inactive); in experiment [12] it was 73.3 µM (inactive). For the same compound, the GI50 was > 100 µM (inactive) in experiment [13]; 36.1 µM (inactive) in experiment [18]; 27.5 µM (inactive) in [14]; 25.2 µM (inactive) in [15]; 7.11 µM (inactive) in experiment [16]; 14.6 µM (inactive) in experiment [19].
